A word on the bioavailability: it is dose-corrected exposure relative to a reference, in per cent.

One data set concerns HCT-116 cell line. Nature of the data set: Anti-proliferative activity (Alamar Blue assay). The class given is cell-based, human. As to conditions: for IC50: Homo sapiens, HCT-116, read-out: HCT-116 cell proliferation IC50. Here is the method: The anti-proliferative activities of compounds for use in the combinations of the invention can be determined by measuring the ability of the compounds to inhibition of cell growth in a number of cell lines. […] The method is based on the ability of viable cells to reduce resazurin to its fluorescent product resorufin. […] The number of viable cells is determined by Alamar Blue assay as before. Cell lines can be obtained from the ECACC (European Collection of cell Cultures).
In general terms: Alamar Blue is a resazurin reagent that responds to reducing activity.

For a further data set, the target named is CDK2/CyclinA (Homo sapiens, UniProt P24941). Nature of the data set: Activated CDK2/CyclinA kinase inhibitory activity assay. The class given is biochemical. Here is the method:
The reaction is allowed to proceed for 2 to 4 hours before being stopped with an excess of ortho-phosphoric acid (5 μl at 2%). γ^33P-ATP which remains unincorporated into the histone H1 is separated from phosphorylated histone H1 on a Millipore MAPH filter plate. The wells of the MAPH plate are wetted with 0.5% orthophosphoric acid, and then the results of the reaction are filtered with a Millipore vacuum filtration unit through the wells. Following filtration, the residue is washed twice with 200 μl of 0.5% orthophosphoric acid. Once the filters have dried, 20 μl of Microscint 20 scintillant is added, and then counted on a Packard Topcount for 30 seconds.

Data set [1] deals with human tumour derived cell lines. Nature of the data set: Xenograft studies. The note with it: dosed orally. In kind it is in vivo, nude mice. An excerpt: These biomarkers include suppression of phosphorylation of substrates of the cyclin dependent kinases e.g. retinoblastoma protein.
The nature of data set [2]: Vapour sorption/desorption analysis. In kind it is physicochemical. As to conditions: 0 to 90% RH stepwise, 25 °C, total upon equilibration at 90% RH. Here is the method: Crystals of 4-(2,6-dichlorobenzoylamino)-1H-pyrazole-3-carboxylic acid (1-methanesulphonyl-piperidin-4-yl)-amide prepared by the recrystallisation method of Example 5 Step 8 were subjected to vapour sorption/desorption analysis in order to test for the propensity of this sample to form a hydrated state.
Approximately 20 mg of sample was placed into a wire-mesh vapour sorption balance pan and loaded into an ‘IgaSorp’ vapour sorption balance (Hiden Analytical Instruments) held at 25+/−0.1° C. The sample was then dried by maintaining a 0% humidity environment (using mass flow control apparatus) until no further weight change was recorded. Subsequently, the sample was then subjected to a ramping profile from 0-90% relative humidity (% RH) at 10% RH increments, maintaining the sample at each step until equilibration had been attained (99.5% step completion).
Upon reaching equilibration, the % RH within the apparatus was ramped to the next step and the equilibration procedure repeated. After completion of the sorption cycle, the sample was then dried using the same procedure. The weight change during the sorption/desorption cycles was then monitored, allowing for the hygroscopic nature of the sample to be determined.

A short description of data set [3]: Determination of oral bioavailability. In kind it is in vivo, balb/c mice. The note with it: mice, oral route (5 mg/kg PO vs 1 mg/kg IV). The procedure: The oral bioavailability of the compounds for use in the combinations of the invention may be determined as follows.
The test compound is administered as a solution both I.V. and orally to balb/c mice at the following dose level and dose formulations; • 1 mg/kg IV formulated in 10% DMSO/90% (2-hydroxypropyl)-β-cyclodextrin (25% w/v); and • 5 mg/kg PO formulated in 10% DMSO/20% water/70% PEG200.
At various time points after dosing, blood samples are taken in heparinised tubes and the plasma fraction is collected for analysis. The analysis is undertaken by LC-MS/MS after protein precipitation and the samples are quantified by comparison with a standard calibration line constructed for the test compound. The area under the curve (AUC) is calculated from the plasma level vs time profile by standard methods. The oral bioavailability as a percentage is calculated from the following equation: […]

The subject of the next data set is CML patients. As to conditions: CML blast phase; cited from earlier work.
In a further data set the test system is OVCAR-3 tumour cells. As to conditions: concentrations of 50 and 100 microM; cited from earlier work.
The target in a further data set is PKA (Homo sapiens, UniProt P17612). The note with it: cited from earlier work.
The next data set concerns PKG. The note with it: cited from earlier work.

For the compound `CS(=O)(=O)N1CCC(NC(=O)c2n[nH]cc2NC(=O)c2c(F)cccc2F)CC1` [reference compound], the IC50 in the data set on HCT-116 cell line is 740 nM. Further, the “selectivity for CDK inhibition over GSK3β” value on CDK2/CyclinA is recorded as roughly 6 fold.

With `CS(=O)(=O)N1CCC(NC(=O)c2n[nH]cc2NC(=O)c2c(Cl)cccc2Cl)CC1` [Example 1, 4-(2,6-dichloro-benzoylamino)-1H-pyrazole-3-carboxylic acid (1-methanesulphonyl-piperidin-4-yl)-amide], in the data set on HCT-116 cell line, the “more potent anti-proliferative effect on human colon cancer HCT-116 cell line compared to difluoro-analogue” value is 6-7 fold and the IC50 came to 110 nM. Further, the “tumour biomarkers (phosphorylation of CDK substrates e.g. retinoblastoma protein)” value in [1] is on record as “inhibition of the tumour biomarkers”. In addition, the “tumour growth in xenografts” value in data set [1] (xenografts implanted sub-cutaneously) is given as “inhibition of tumour growth”. Further, the “weight increase on vapour sorption” value in data set [2] is 0.24%. In addition, the bioavailability in [3] (balb/c, mouse, plasma, oral, 5 mg/kg) lay within 40 to 50%. Further, the oral bioavailability in data set [3] is 30-100%.

As for `Cc1ccc(NC(=O)c2ccc(CN3CCN(C)CC3)cc2)cc1Nc1nccc(-c2cccnc2)n1` [imatinib], in the data set on CML patients, the duration of remissions is on record as 2-6 months.

Consider `O=S(=O)(NCCNCC=C(c1ccccc1)c1ccccc1)c1cccc2cnccc12` [NL-71-101], for which the “apoptosis in OVCAR-3 tumour cells” value with OVCAR-3 tumour cells is listed as “induced apoptosis”. The values for the IC50 on PKA and with PKG were 9 µM and 36 µM, respectively.

The record behind these values is US20090142337A1, “Pharmaceutical Combinations of Diazole Derivatives for Cancer Treatment” (Astex Therapeutics Limited, priority 2006, published 2009).
